Assay results taken from PubChem BioAssay (NCI).
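48-hour exposure; five concentrations; linearly interpolated endpoints. GI50 = concentration required for 50% inhibition of growth. TGI is the concentration that stops growth completely.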

Legend:
Assay in all cases: NCI tumour cell line growth inhibition, 48 h
786-0 renal = test system: 786-0 renal
A498 renal = test system: A498 renal
A549 NSCLC = test system: A549 NSCLC
ACHN renal = test system: ACHN renal
BT-549 breast = test system: BT-549 breast
CAKI-1 renal = test system: CAKI-1 renal
CCRF-CEM leukemia = test system: CCRF-CEM leukemia
COLO 205 colon = test system: COLO 205 colon
DU-145 prostate = test system: DU-145 prostate
HCC-2998 colon = test system: HCC-2998 colon
HCT-116 colon = test system: HCT-116 colon
HCT-15 colon = test system: HCT-15 colon
HL-60(TB) leukemia = test system: HL-60(TB) leukemia
HOP-62 NSCLC = test system: HOP-62 NSCLC
HOP-92 NSCLC = test system: HOP-92 NSCLC
HS 578T breast = test system: HS 578T breast
HT29 colon = test system: HT29 colon
IGROV1 ovarian = test system: IGROV1 ovarian
K-562 leukemia = test system: K-562 leukemia
KM12 colon = test system: KM12 colon
LOX IMVI melanoma = test system: LOX IMVI melanoma
M14 melanoma = test system: M14 melanoma
MALME-3M melanoma = test system: MALME-3M melanoma
MCF7 breast = test system: MCF7 breast
MDA-MB-231 breast = test system: MDA-MB-231 breast
MDA-MB-435 = test system: MDA-MB-435
MOLT-4 leukemia = test system: MOLT-4 leukemia

NCCOCCOCCNc1nc(Cc2ccccc2)nc(NCCCN2CCCC2=O)n1
GI50 (786-0 renal): > 100 µM | TGI (786-0 renal): > 100 µM | GI50 (A498 renal): > 100 µM | TGI (A498 renal): > 100 µM | GI50 (A549 NSCLC): > 100 µM | TGI (A549 NSCLC): > 100 µM | GI50 (ACHN renal): > 100 µM | TGI (ACHN renal): > 100 µM | GI50 (BT-549 breast): > 100 µM | TGI (BT-549 breast): > 100 µM | GI50 (CAKI-1 renal): > 100 µM | TGI (CAKI-1 renal): > 100 µM | GI50 (CCRF-CEM leukemia): > 100 µM | TGI (CCRF-CEM leukemia): > 100 µM | GI50 (COLO 205 colon): > 100 µM | TGI (COLO 205 colon): > 100 µM | GI50 (DU-145 prostate): > 100 µM | TGI (DU-145 prostate): > 100 µM | GI50 (HCC-2998 colon): > 100 µM | TGI (HCC-2998 colon): > 100 µM | GI50 (HCT-116 colon): > 100 µM | TGI (HCT-116 colon): > 100 µM | GI50 (HCT-15 colon): > 100 µM | TGI (HCT-15 colon): > 100 µM | GI50 (HL-60(TB) leukemia): > 100 µM | TGI (HL-60(TB) leukemia): > 100 µM | GI50 (HOP-62 NSCLC): > 100 µM | TGI (HOP-62 NSCLC): > 100 µM | GI50 (HOP-92 NSCLC): > 100 µM | TGI (HOP-92 NSCLC): > 100 µM | GI50 (HS 578T breast): > 100 µM | TGI (HS 578T breast): > 100 µM | GI50 (HT29 colon): > 100 µM | TGI (HT29 colon): > 100 µM | GI50 (IGROV1 ovarian): > 100 µM | TGI (IGROV1 ovarian): > 100 µM | GI50 (K-562 leukemia): > 100 µM | TGI (K-562 leukemia): > 100 µM | GI50 (KM12 colon): > 100 µM | TGI (KM12 colon): > 100 µM | GI50 (LOX IMVI melanoma): > 100 µM | TGI (LOX IMVI melanoma): > 100 µM | GI50 (M14 melanoma): > 100 µM | TGI (M14 melanoma): > 100 µM | GI50 (MALME-3M melanoma): > 100 µM | TGI (MALME-3M melanoma): > 100 µM | GI50 (MCF7 breast): > 100 µM | TGI (MCF7 breast): > 100 µM | GI50 (MDA-MB-231 breast): > 100 µM | TGI (MDA-MB-231 breast): > 100 µM | GI50 (MDA-MB-435): > 100 µM | TGI (MDA-MB-435): > 100 µM | GI50 (MOLT-4 leukemia): > 100 µM
